Laboratory results reported in patent publication US4122179A, “Acid addition salts of vincamine and apovincamine” (priority 1976, dated 1978).
Counter-ions that a name gives are not always drawn.

Columns and labels:
[1] = LD50 / acute toxicity, intraperitoneal route; type: in vivo; settings: i.p.; for Toxicity (Gleason): Gleason class in words, classes not defined
[2] = Hematic levels at different times after oral administration (absorption); type: in vivo, Wistar rat; settings: 100 mg/kg expressed as vincamine/apovincamine, 5% carboxymethyl cellulose suspension
Protocol: (§1) For the compounds of the present invention a number of pharmacological and pharmacokinetic tests have been carried out. […] As regards the pharmacological and pharmacodynamic activity, it has been studied on the percent variations of the hematic flow, as recorded at the vertebral arteria in the dog after administration of the tested compounds. As regards the pharmacokinetic tests, the compounds were administered per oral route to the Wistar rat, and the hematic levels at different times from the administration were measured.
For the evaluation of the absorption, all the compounds have been orally administered at the dosage of 100 mg/kg, expressed as vincamine and apovincamine, in form of a suspension in a 5% carboxymethyl cellulose solution.
The absorption was determined by evaulating the hematic levels at the following times (minutes) : 0, 30, 120, 240, 480, 10 hours and 12 hours, in order also to assess the time from the administration (max conc.time) the maximum absorption occurred.
The vincamine and apovincamine concentrations were assessed by chromatographic method.
For the evaluation of the prolonged action of the salts and of the adducts of vincamine and apovincamine the following criterium was adopted; as derivatives having a long-acting effect, there are considered those which, 120 minutes after the administration, show hematic levels higher than those obtained with vincamine and apovincamine.

vertebral arteria = experiment: Cerebral vasodilating activity: hematic flow at the vertebral arteria after i.v. administration; type: in vivo; settings: i.v. (femoral vein), 5 mg/kg of vincamine/apovincamine, anesthetized dog, 4 animals per compound
Protocol: as §1
The cerebral vasodilating activity was studied in the anestetized dog, by measuring, by means of Statham periarterial electromagnetic flowmeters, the hematic flow at the level of the […] which, in such animal species, constitutes the greatest blood supply to the brain.
The resuls are reported in the TABLE 2 (last column) as the percent variations of the flow measured at the level of the ledt vertebral arteria after the i.v. administration of the several compounds to be tested to groups of 4 animals for each compound. The results also confirm that the compounds of the invention are all endowed with a vasodilating activity at the level of the cerebral circulus, such an action being, for some compounds, much more remarkable than that of vincamine and apovincamine.

Solubility = type: physicochemical; settings: qualitative; for solubility in alcohol: alcohol (ethyl alcohol)

Compound	LD50 [1]	Toxicity (Gleason) [1]	Max. conc. time ([2]; 100 mg/kg)	% increase (percent variation of hematic flow, left vertebral arteria) (vertebral arteria; 5 mg/kg)	solubility in alcohol (Solubility)	solubility in water (Solubility)	Max. conc. time [2]	% increase (percent variation of hematic flow, left vertebral arteria) (vertebral arteria)	solubility in the common (organic) solvents (Solubility)	solubility (solvent not given) (Solubility; solvent not stated)
CC[C@@]12C=C(C(=O)OC)n3c4c(c5ccccc53)CCN(CCC1)[C@H]42 [Example 15.b, Apovincamine nicotinate]	750 mg/kg	modest	60 min	28.3%	insoluble	insoluble	–	–	–	–
CC[C@]12CCCN3CCc4c(n(c5ccccc45)[C@@](O)(C(=O)OC)C1)[C@@H]32 [Example 12.a, Vincamine furoate (furan-2-carboxylate)]	800 mg/kg	modest	120 min	24.8%	insoluble	insoluble	–	–	–	–
Vincamine alginate [Example 23.a]	550 mg/kg	modest	–	–	–	insoluble	20 min	34.7%	insoluble	–
CC[C@]12CCCN3CCc4c(n(c5ccccc45)[C@@](O)(C(=O)OC)C1)[C@@H]32 [Example 10.a]	1300 mg/kg	light	240 min	27.9%	insoluble	insoluble	–	–	–	–
CC[C@@]12C=C(C(=O)OC)n3c4c(c5ccccc53)CCN(CCC1)[C@H]42 [Example 2.b, Apovineamine 2,4-dihydroxy-benzoate]	650 mg/kg	modest	120 min	29.0%	soluble	–	–	–	not	–
Apovincamine-pectin (1:1 adduct) [Example 30.b]	750 mg/kg	modest	–	–	little soluble	–	60 min	39.6%	–	–
CC[C@]12CCCN3CCc4c(n(c5ccccc45)[C@@](O)(C(=O)OC)C1)[C@@H]32 [Example 18.a, Vincamine enanthate]	750 mg/kg	modest	60 min	27.7%	–	–	–	–	insoluble	–
CC[C@]12CCCN3CCc4c(n(c5ccccc45)[C@@](O)(C(=O)OC)C1)[C@@H]32 [Example 14.a, Vincamine L(+)-O,O-dibenzoyltartrate]	950 mg/kg	modest	60 min	29.6%	poorly soluble	poorly soluble	–	–	insoluble	–
CC[C@@]12C=C(C(=O)OC)n3c4c(c5ccccc53)CCN(CCC1)[C@H]42 [Example 26.b, Apovincamine indolyl-3-acetate]	750 mg/kg	modest	120 min	28.7%	poorly soluble	insoluble	–	–	–	–
CC[C@@]12C=C(C(=O)OC)n3c4c(c5ccccc53)CCN(CCC1)[C@H]42 [Example 4.b, Apovincamine glucose-1-phosphate, acid salt]	600 mg/kg	modest	240 min	26.1%	–	soluble	–	–	–	–
CC[C@@]12C=C(C(=O)OC)n3c4c(c5ccccc53)CCN(CCC1)[C@H]42 [Example 19.b, Apovincamine p-chlorophenoxyacetate]	750 mg/kg	modest	480 min	28.4%	–	insoluble	–	–	–	–
CC[C@@]12C=C(C(=O)OC)n3c4c(c5ccccc53)CCN(CCC1)[C@H]42 [Example 11.b, Apovincamine 4-acetamidobutyrate]	1500 mg/kg	light	480 min	33.0%	insoluble	insoluble	–	–	–	–
CC[C@]12CCCN3CCc4c(n(c5ccccc45)[C@@](O)(C(=O)OC)C1)[C@@H]32 [Example 29.a, Vincamine dihydroxyphenylalanine (DOPA)]	1500 mg/kg	light	20 min	38.2%	–	practically insoluble	–	–	practically insoluble	–
CC[C@@]12C=C(C(=O)OC)n3c4c(c5ccccc53)CCN(CCC1)[C@H]42 [Example 9.b, Apovincamine clofibrate]	800 mg/kg	light	480 min	28.3%	soluble	insoluble	–	–	–	–
CC[C@@]12C=C(C(=O)OC)n3c4c(c5ccccc53)CCN(CCC1)[C@H]42 [Example 3.b, Apovincamine glucose-1-phosphate]	850 mg/kg	modest	120 min	26.4%	–	soluble	–	–	–	–
CC[C@@]12C=C(C(=O)OC)n3c4c(c5ccccc53)CCN(CCC1)[C@H]42 [Example 10.b, Apovincamine pivalate]	750 mg/kg	modest	480 min	31.4%	soluble	insoluble	–	–	–	–
CC[C@@]12C=C(C(=O)OC)n3c4c(c5ccccc53)CCN(CCC1)[C@H]42 [Example 29.b, Apovincamine dihydroxyphenylalanine]	900 mg/kg	light	120 min	41.3%	–	–	–	–	–	insoluble
CC[C@]12CCCN3CCc4c(n(c5ccccc45)[C@@](O)(C(=O)OC)C1)[C@@H]32 [Example 8.a, Vincamine p-toluensulfonate]	1250 mg/kg	light	480 min	25.1%	soluble	soluble	–	–	–	–
CC[C@]12CCCN3CCc4c(n(c5ccccc45)[C@@](O)(C(=O)OC)C1)[C@@H]32 [Example 2.a, Vincamine 2,4-dihydroxy-benzoate]	750 mg/kg	modest	120 min	24.8%	soluble	–	–	–	–	–
CC[C@]12CCCN3CCc4c(n(c5ccccc45)[C@@](O)(C(=O)OC)C1)[C@@H]32 [Example 21.a]	900 mg/kg	modest	20 min	30.0%	–	insoluble	–	–	insoluble	–
CC[C@]12CCCN3CCc4c(n(c5ccccc45)[C@@](O)(C(=O)OC)C1)[C@@H]32 [Example 27.a, Vincamine hydroquinone]	500 mg/kg	modest	120 min	29.1%	–	insoluble	–	–	insoluble	–
CC[C@]12CCCN3CCc4c(n(c5ccccc45)[C@@](O)(C(=O)OC)C1)[C@@H]32 [Example 4.a, Vincamine glucose-1-phosphate, acid salt]	700 mg/kg	modest	240 min	26.6%	–	soluble	–	–	–	–
CC[C@]12CCCN3CCc4c(n(c5ccccc45)[C@@](O)(C(=O)OC)C1)[C@@H]32 [Example 7.a, Vincamine 3,5-dihydroxybenzoate]	850 mg/kg	modest	240 min	26.3%	insoluble	insoluble	–	–	–	–
